System: early stressed maternally deprived mice
Test: Serum stress hormones after acute restraint stress in maternally separated (early stressed) mice fed experimental diets
Format: in vivo, C57BL/6 mice
Procedure: In this Example, the effects of 2-fucosyl-lactose on the production of serum corticosterone in early stressed maternally deprived mice were analyzed. Initially, mice pups were early stressed using a model of maternal separation. Particularly, one day after delivery, C57BL/6 mice pups were sexed and grouped as sham (non-stressed Control group) or maternally separated (MS—stressed group) animals. From day 2 until day 14 after delivery, the MS pups were removed from the dam and kept isolated for a period of 4 hours per day, typically, from 10:00 AM to 2:00 PM, in a thermostatted cup. During the same time period, pups from the sham group were daily handled for a period of five minutes in order to receive the same grade of habituation to a researcher's hands as the MS pups. Each dam had litters of 4 males and 2 females. Females were allowed to stay with the mother, while males were maternally deprived in order to avoid stressing the dam by removing all of the pups. Additionally, pups from the MS group were prematurely weaned, and thus permanently removed from the dam, at postnatal day 17, whereas sham pups were not weaned until postnatal day 21. At postnatal day 22, all pups in the MS group were pooled and four experimental groups were made before starting nutritional intervention. [table] At the nutritional intervention stage, mice were fed experimental diets for a period of eight weeks. After eight weeks, blood samples were taken from facial veins of the mice in order to measure basal stress hormones (i.e., corticosterone, adrenocorticotropic hormone (ACTH), and melatonin). Stress hormones were measured using luminex technology using a multiplex commercial kit (commercially available from Millipore Corporation, Billerica, Mass.) Seven days later, mice were submitted to an acute stress by restraint protocol. Particularly, mice were placed into a multi-drilled 50-ml centrifuge tube for 20 minutes. After this time, mice were extracted from the tube, and again, blood samples were taken in order to measure serum stress hormones immediately after the acute stressful event (i.e., restraint).

[1] = MS-stressed mice, supplemented diet about 7 mg/mouse/day, post-restraint, stated for any of the experimental groups

## 2-fucosyl-lactose [2-fucosyllactose]
AIN93G diet with about 7 mg/mouse/day for eight weeks, blood taken immediately after 20 minutes restraint, Group C vs MS control Group D
  serum corticosterone levels in response to restraint, compared with MS mice on the control diet: significantly lower
MS-stressed mice, AIN93G diet with about 7 mg/mouse/day for eight weeks, blood taken immediately after 20 minutes restraint, Group C vs sham Group E
  serum corticosterone levels in response to restraint, compared with normal sham mice: equal that of the normal sham mice
[1]
  ACTH serum levels post-restraint: no effects
  melatonin serum levels post-restraint: no effects

— patent US20210401862A1, “METHODS FOR MODULATING CORTICOSTERONE LEVELS IN PSYCHOLOGICALLY STRESSED INDIVIDUALS” (ABBOTT LABORATORIES, priority 2012, published 2021)
